The record followed here is ChEMBL document CHEMBL1821723 (J Med Chem, 2011).

The data set in a line: in vitro. To be noted: human, liver microsomes. A general note: Liver microsomes are vesicles of endoplasmic reticulum, rich in cytochrome P450 enzymes.

As a reminder, the share remaining is what is left of the initial amount, in per cent. Low readings indicate more turnover, high ones less turnover.

Description: Metabolic stability in human liver microsome assessed as compound remaining after 30 mins

For `CC(Oc1cc(-c2cnn(C3CNC3)c2)cnc1N)c1c(Cl)ccc(F)c1Cl` (racemic), the amount remaining at 0.5 h is 44%.

Consider `CC(Oc1cc(-c2cnn(C)c2)cnc1N)c1c(Cl)ccc(F)c1Cl` (racemic), for which the fraction remaining at 0.5 h stood at 5.2%.

For `CC(Oc1cc(-c2cnn(CC3(O)CCOCC3)c2)cnc1N)c1c(Cl)ccc(F)c1Cl` (racemic), the share remaining at 0.5 h is 0.9%.

Regarding `CC(Oc1cc(-c2cnn(CC3CN(CC(N)=O)C3)c2)cnc1N)c1c(Cl)ccc(F)c1Cl` (racemic), the share remaining at 0.5 h came to 47.8%.

`CC(Oc1cc(-c2cnn(CC(=O)NCCCN(C)C)c2)cnc1N)c1c(Cl)ccc(F)c1Cl` (racemic) showed a fraction remaining at 0.5 h of 23.8%.

The compound `CC(Oc1cc(-c2cnn(C3CCCNC3)c2)cnc1N)c1c(Cl)ccc(F)c1Cl` (racemic) yielded a share remaining at 0.5 h of 44.3%.

Regarding `CC(Oc1cc(-c2cnn(C(C)C)c2)cnc1N)c1c(Cl)ccc(F)c1Cl` (racemic), the share remaining at 0.5 h was 3.2%.

Take `CC(Oc1cc(-c2cnn(CC3CNC3)c2)cnc1N)c1c(Cl)ccc(F)c1Cl` (racemic): the fraction remaining at 0.5 h amounted to 71%.

`CC(Oc1cc(-c2cnn(C(C)(C)C(=O)NCCN(C)C)c2)cnc1N)c1c(Cl)ccc(F)c1Cl` (racemic): the fraction remaining at 0.5 h came out at 3.6%.
